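Following 48 hours of exposure in 96-well plates, responses at five concentrations were used to interpolate endpoints linearly. TGI is the concentration that stops growth completely.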
Key:
Assay in all cases: NCI anticancer screen, dose series, 48 h
A498 renal = tested on: A498 renal
OVCAR-5 ovarian = tested on: OVCAR-5 ovarian
TK-10 renal = tested on: TK-10 renal
HOP-62 NSCLC = tested on: HOP-62 NSCLC
UACC-62 melanoma = tested on: UACC-62 melanoma
COLO 205 colon = tested on: COLO 205 colon
HOP-92 NSCLC = tested on: HOP-92 NSCLC
KM12 colon = tested on: KM12 colon
RXF 393 renal = tested on: RXF 393 renal
UACC-257 melanoma = tested on: UACC-257 melanoma
MCF7 breast = tested on: MCF7 breast
NCI-H460 lung = tested on: NCI-H460 lung
IGROV1 ovarian = tested on: IGROV1 ovarian
RPMI-8226 leukemia = tested on: RPMI-8226 leukemia
PC-3 prostate = tested on: PC-3 prostate
NCI-H226 lung = tested on: NCI-H226 lung
MOLT-4 leukemia = tested on: MOLT-4 leukemia
MDA-N = tested on: MDA-N
SK-OV-3 ovarian = tested on: SK-OV-3 ovarian
CAKI-1 renal = tested on: CAKI-1 renal
SK-MEL-28 melanoma = tested on: SK-MEL-28 melanoma
U251 CNS = tested on: U251 CNS
A549 NSCLC = tested on: A549 NSCLC
OVCAR-4 ovarian = tested on: OVCAR-4 ovarian
SR leukemia = tested on: SR leukemia
SK-MEL-2 melanoma = tested on: SK-MEL-2 melanoma
NCI-H522 lung = tested on: NCI-H522 lung
EKVX NSCLC = tested on: EKVX NSCLC
LOX IMVI melanoma = tested on: LOX IMVI melanoma
HCT-15 colon = tested on: HCT-15 colon
K-562 leukemia = tested on: K-562 leukemia
SK-MEL-5 melanoma = tested on: SK-MEL-5 melanoma
HCC-2998 colon = tested on: HCC-2998 colon
SF-295 CNS = tested on: SF-295 CNS
786-0 renal = tested on: 786-0 renal
SW-620 colon = tested on: SW-620 colon
HT29 colon = tested on: HT29 colon
HCT-116 colon = tested on: HCT-116 colon
SNB-19 CNS = tested on: SNB-19 CNS
SF-539 CNS = tested on: SF-539 CNS
OVCAR-8 ovarian = tested on: OVCAR-8 ovarian
HS 578T breast = tested on: HS 578T breast
SF-268 CNS = tested on: SF-268 CNS
SN12C renal = tested on: SN12C renal
NCI/ADR-RES ovarian = tested on: NCI/ADR-RES ovarian
UO-31 renal = tested on: UO-31 renal
MDA-MB-231 breast = tested on: MDA-MB-231 breast
DU-145 prostate = tested on: DU-145 prostate
NCI-H23 lung = tested on: NCI-H23 lung
M14 melanoma = tested on: M14 melanoma
ACHN renal = tested on: ACHN renal
OVCAR-3 ovarian = tested on: OVCAR-3 ovarian
CCRF-CEM leukemia = tested on: CCRF-CEM leukemia

Q: COc1c2c(cc3nc4ccccc4nc13)CC[C@H](NC(C)=O)c1cc(=O)c(SC)ccc1-2 was tested. Which TGI (A498 renal) did it give?
A: > 90.9 µM

Q: What about the TGI (OVCAR-5 ovarian) of the same compound?
A: > 100 µM

Q: What about the TGI (TK-10 renal) of the same compound?
A: > 59.3 µM

Q: What about the TGI (HOP-62 NSCLC) of the same compound?
A: > 100 µM

Q: And the TGI (UACC-62 melanoma)?
A: 44.6 µM

Q: What about the TGI (COLO 205 colon) of the same compound?
A: 3.31 µM

Q: And the TGI (HOP-92 NSCLC)?
A: > 55.9 µM

Q: What about the TGI (KM12 colon) of the same compound?
A: 3 µM

Q: And the TGI (RXF 393 renal)?
A: > 49.9 µM

Q: And the TGI (UACC-257 melanoma)?
A: 30.5 µM

Q: What about the TGI (MCF7 breast) of the same compound?
A: > 100 µM

Q: And the TGI (NCI-H460 lung)?
A: > 100 µM

Q: And the TGI (IGROV1 ovarian)?
A: 4.36 µM

Q: What about the TGI (RPMI-8226 leukemia) of the same compound?
A: > 100 µM

Q: What about the TGI (PC-3 prostate) of the same compound?
A: > 69.6 µM

Q: What about the TGI (NCI-H226 lung) of the same compound?
A: 32.2 µM

Q: What about the TGI (MOLT-4 leukemia) of the same compound?
A: > 65.4 µM

Q: And the TGI (MDA-N)?
A: 0.329 µM

Q: And the TGI (SK-OV-3 ovarian)?
A: > 70.9 µM

Q: What about the TGI (CAKI-1 renal) of the same compound?
A: > 42.6 µM

Q: What about the TGI (SK-MEL-28 melanoma) of the same compound?
A: > 100 µM

Q: And the TGI (U251 CNS)?
A: 10.6 µM

Q: What about the TGI (A549 NSCLC) of the same compound?
A: > 100 µM

Q: What about the TGI (OVCAR-4 ovarian) of the same compound?
A: 38.7 µM

Q: And the TGI (SR leukemia)?
A: > 32.5 µM

Q: What about the TGI (SK-MEL-2 melanoma) of the same compound?
A: > 55.2 µM

Q: What about the TGI (NCI-H522 lung) of the same compound?
A: 1.69 µM

Q: What about the TGI (EKVX NSCLC) of the same compound?
A: 8.63 µM

Q: And the TGI (LOX IMVI melanoma)?
A: > 71.6 µM

Q: And the TGI (HCT-15 colon)?
A: 19 µM

Q: And the TGI (K-562 leukemia)?
A: > 42.2 µM

Q: And the TGI (SK-MEL-5 melanoma)?
A: 10.8 µM

Q: And the TGI (HCC-2998 colon)?
A: > 24.6 µM

Q: What about the TGI (SF-295 CNS) of the same compound?
A: > 44.6 µM

Q: And the TGI (786-0 renal)?
A: 39.8 µM

Q: And the TGI (SW-620 colon)?
A: > 100 µM

Q: What about the TGI (HT29 colon) of the same compound?
A: 6.23 µM

Q: And the TGI (HCT-116 colon)?
A: 27.3 µM

Q: And the TGI (SNB-19 CNS)?
A: > 100 µM

Q: What about the TGI (SF-539 CNS) of the same compound?
A: 5.28 µM

Q: What about the TGI (OVCAR-8 ovarian) of the same compound?
A: > 32.7 µM

Q: What about the TGI (HS 578T breast) of the same compound?
A: 0.7 µM

Q: What about the TGI (SF-268 CNS) of the same compound?
A: > 56.5 µM

Q: And the TGI (SN12C renal)?
A: 34.2 µM

Q: What about the TGI (NCI/ADR-RES ovarian) of the same compound?
A: > 100 µM

Q: What about the TGI (UO-31 renal) of the same compound?
A: 28.7 µM

Q: And the TGI (MDA-MB-231 breast)?
A: 36.1 µM

Q: What about the TGI (DU-145 prostate) of the same compound?
A: 51.3 µM

Q: What about the TGI (NCI-H23 lung) of the same compound?
A: 0.777 µM

Q: And the TGI (M14 melanoma)?
A: 19.3 µM

Q: What about the TGI (ACHN renal) of the same compound?
A: > 64.5 µM

Q: What about the TGI (OVCAR-3 ovarian) of the same compound?
A: > 100 µM

Q: What about the TGI (CCRF-CEM leukemia) of the same compound?
A: > 100 µM

Source: PubChem BioAssay (NCI)
